Reference: patent US20250129021A1, “SMALL MOLECULE PROTEIN SYNTHESIS MODULATORS” (Interdict Bio, Inc., priority 2023, published 2025)
pIC50: −log10 of the molar value.

Legend:
Assay type in all cases: biochemical
MYC = experiment: In vitro transcription-translation (IVTT) assay, MYC reporter; conditions: IVTT assay, HeLa S3 lysate, MYC reporter, normalized sfGFP/mCherry ratio; half-log dilutions 30 μM-0.1 μM, 2 hrs at 30° C.
How it was run: (§1)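 Reporter: mCherry, P2A, then 3×FLAG-target peptide-sfGFP fusion, IRES-initiated; HeLa S3 lysate IVTT; cpd dilutions 30 μM−0.1 μM half-log in 100% DMSO (dilution-plate conc); DNA added last; 2 h, 30° C; PBS quench.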

CCND1 = experiment: In vitro transcription-translation (IVTT) assay, CCND1 reporter; conditions: IVTT assay, HeLa S3 lysate, sfGFP/mCherry ratio
How it was run: as §1

NFKB1 = experiment: In vitro transcription-translation (IVTT) assay, NFKB1 reporter; conditions: HeLa S3 lysate, sfGFP/mCherry ratio
Procedure: In vitro transcription-translation assay setup: Each assay includes a master mix containing lysate and shared components, a 96-well plate containing compound titrations for testing, a 96-well DNA plate with reporter constructs to be tested, 96-well skirted PCR plates, and 96-well flat-bottom, black, fluorescent assay plates. Reaction materials setup: (A) Master mix—15 mL conical tube (3 mL of HeLa S3 Lysate described above; 0.6 mL of ThermoFisher Accessory Proteins (#88882); 1.2 ml of ThermoFisher Reaction Mix (#88882); 0.54 mL of nuclease-free Water); (B) 96-Well Master Mix+Compound Plate (Half-log dilutions (30 μM−0.1 μM) of 4 compounds of interest are prepared in 100% DMSO); 96-Well DNA Plate (Five DNA constructs are plated into single columns within the plate. Row 1 of the column contains nuclease free H2O, all other wells contain 110 ng/μL plasmid DNA). Reactions are started by mixing 155 μL of master mix and 3.5 μL of compound serial dilutions, then 9.1 μL of master mix+compound mixture is aliquoted across 5 96-well plates. Reactions begin with final addition of 2 μL of DNA for a 11.1 μL reaction volume in each well. The entire plate is sealed, and incubated for 2 hrs at 30° C. After 2 hrs, quench the assay using 45 μL of PBS, and transfer 50 μL to a flat-bottom black microplate Quantify the sfGFP and mCherry signals from each well on each plate, taking 3 reads of each plate, and perform data analysis below.
In vitro transcription-translation assay data analysis: Each plate is read three times in channels for both sfGFP and mCherry signals. The average signal across these 3 reads is then calculated for further analysis. Control wells containing no DNA reporter are subtracted from reporter wells in the same column to remove auto-fluorescence of the lysate. Then, the ratio of sfGFP/mCherry is calculated per well, and these ratios are averaged across the triplicate experiments on the same plate. Finally, the ratio of each titration concentration is normalized to the no drug control to create the normalized stalling metric. The error on this measurement is determined by propagating error through the averaging and normalization steps. Values are plotted and fit for IC50 determination for each test sequence and titration of compound.

| pIC50 (CCND1) | pIC50 (NFKB1) | Compound | pIC50 (MYC) |
| --- | --- | --- | --- |
| > 5.00 | > 5.00 | CNC1(c2cccc(CNC(=O)O[C@@H]3[C@@H](O)CN[C@@H]3Cc3ccc(-c4cnco4)cc3)c2)CC1 [V192289, (2R,3S,4S)-4-hydroxy-2-{[4-(1,3-oxazol-5-yl)phenyl]methyl}pyrrolidin-3-yl N-({3-[1-(methylamino)cyclopropyl]phenyl}methyl)carbamate] | > 5.00 |
| > 5.00 | > 5.00 | O=C(NCc1cccc(F)c1)O[C@@H]1[C@@H](O)CN[C@@H]1Cc1ccc(Oc2cccnc2)cc1 [V192398, (2R,3S,4S)-4-hydroxy-2-{[4-(pyridin-3-yloxy)phenyl]methyl}pyrrolidin-3-yl N-[(3-fluorophenyl)methyl]carbamate] | > 5.00 |
| > 5.00 | > 5.00 | O=C(NCc1cccc(F)c1)O[C@@H]1[C@@H](O)CN[C@@H]1Cc1ccc(-c2nncs2)cc1 [V192411, (2R,3S,4S)-4-hydroxy-2-{[4-(1,3,4-thiadiazol-2-yl)phenyl]methyl}pyrrolidin-3-yl N-[(3-fluorophenyl)methyl]carbamate] | > 5.00 |
| > 5.00 | > 5.00 | O=C(NCCSC(F)(F)F)O[C@@H]1[C@@H](O)CN[C@@H]1Cc1ccc(-c2cnco2)cc1 [V192442, (2R,3S,4S)-4-hydroxy-2-{[4-(1,3-oxazol-5-yl)phenyl]methyl}pyrrolidin-3-yl N-{2-[(trifluoromethyl)sulfanyl]ethyl}carbamate] | > 5.00 |
| > 5.00 | > 5.00 | O=C(NCCC12CC(CN1)C2)O[C@@H]1[C@@H](O)CN[C@@H]1Cc1ccc(-c2cnco2)cc1 [V192847, (2R,3S,4S)-4-hydroxy-2-{[4-(1,3-oxazol-5-yl)phenyl]methyl}pyrrolidin-3-yl N-(2-{2-azabicyclo[2.1.1]hexan-1-yl}ethyl)carbamate] | > 5.00 |
| > 5.00 | > 5.00 | C[C@H]1CC[C@@H](CCNC(=O)O[C@@H]2[C@@H](O)CN[C@@H]2Cc2ccc(-c3cnco3)cc2)N1 [V192850, (2R,3S,4S)-4-hydroxy-2-{[4-(1,3-oxazol-5-yl)phenyl]methyl}pyrrolidin-3-yl N-{2-[(2S,5S)-5-methylpyrrolidin-2-yl]ethyl}carbamate] | > 5.00 |
| > 5.00 | > 5.00 | O=C(NCCC(O)C(F)(F)F)O[C@@H]1[C@@H](O)CN[C@@H]1Cc1ccc(-c2cnco2)cc1 (stereo partly drawn) [V192868, (2R,3S,4S)-4-hydroxy-2-{[4-(1,3-oxazol-5-yl)phenyl]methyl}pyrrolidin-3-yl N-(4,4,4-trifluoro-3-hydroxybutyl)carbamate] | > 5.00 |

Continued, compound first:

| Compound | pIC50 (CCND1) | pIC50 (NFKB1) | pIC50 (MYC) |
| --- | --- | --- | --- |
| O=C(NCc1cncc(N2CCC2)c1)O[C@@H]1[C@@H](O)CN[C@@H]1Cc1ccc(-c2cnco2)cc1 [V192286, (2R,3S,4S)-4-hydroxy-2-{[4-(1,3-oxazol-5-yl)phenyl]methyl}pyrrolidin-3-yl N-{[5-(azetidin-1-yl)pyridin-3-yl]methyl}carbamate] | > 5.00 | > 5.00 | > 5.00 |
| CNC1(c2ccc(CNC(=O)O[C@@H]3[C@@H](O)CN[C@@H]3Cc3ccc(-c4cnco4)cc3)cc2)CC1 [V192288, (2R,3S,4S)-4-hydroxy-2-{[4-(1,3-oxazol-5-yl)phenyl]methyl}pyrrolidin-3-yl N-({4-[1-(methylamino)cyclopropyl]phenyl}methyl)carbamate] | > 5.00 | > 5.00 | > 5.00 |
| O=C(NCc1cccc(F)c1)O[C@@H]1[C@@H](O)CN[C@@H]1Cc1ccc(-c2cnc(C(F)F)s2)cc1 [V192310, (2R,3S,4S)-2-({4-[2-(difluoromethyl)-1,3-thiazol-5-yl]phenyl}methyl)-4-hydroxypyrrolidin-3-yl N-[(3-fluorophenyl)methyl]carbamate] | 4.70 to 5.00 | > 5.00 | > 5.00 |
| O=C(NCc1cccc(F)c1)O[C@@H]1[C@@H](O)CN[C@@H]1Cc1ccc(-c2cnns2)cc1 [V192319, (2R,3S,4S)-4-hydroxy-2-{[4-(1,2,3-thiadiazol-5-yl)phenyl]methyl}pyrrolidin-3-yl N-[(3-fluorophenyl)methyl]carbamate] | > 5.00 | > 5.00 | > 5.00 |
| O=C(NCC[C@@H]1CCCN1)O[C@@H]1[C@@H](O)CN[C@@H]1Cc1ccc(-c2cnns2)cc1 [V192320, (2R,3S,4S)-4-hydroxy-2-{[4-(1,2,3-thiadiazol-5-yl)phenyl]methyl}pyrrolidin-3-yl N-{2-[(2S)-pyrrolidin-2-yl]ethyl}carbamate] | > 5.00 | > 5.00 | > 5.00 |
| O=C(NCc1cccc(F)c1)O[C@@H]1[C@@H](O)CN[C@@H]1Cc1ccc(-c2ccns2)cc1 [V192324, (2R,3S,4S)-4-hydroxy-2-{[4-(1,2-thiazol-5-yl)phenyl]methyl}pyrrolidin-3-yl N-[(3-fluorophenyl)methyl]carbamate] | > 5.00 | > 5.00 | > 5.00 |
| O=C(NCC[C@@H]1CCCN1)O[C@@H]1[C@@H](O)CN[C@@H]1Cc1ccc(-c2ccns2)cc1 [V192331, (2R,3S,4S)-4-hydroxy-2-{[4-(1,2-thiazol-5-yl)phenyl]methyl}pyrrolidin-3-yl N-{2-[(2S)-pyrrolidin-2-yl]ethyl}carbamate] | > 5.00 | > 5.00 | > 5.00 |
| O=C(NCC[C@@H]1CCCN1)O[C@@H]1[C@@H](O)CN[C@@H]1Cc1ccc([N+](=O)[O-])cc1 [V192359, (2R,3S,4S)-4-hydroxy-2-[(4-nitrophenyl)methyl]pyrrolidin-3-yl N-{2-[(2S)-pyrrolidin-2-yl]ethyl}carbamate] | > 5.00 | > 5.00 | > 5.00 |
| O=C(NCc1cccc(F)c1)O[C@@H]1[C@@H](O)CN[C@@H]1Cc1ccc(-c2ccc3nonc3c2)cc1 [V192385, (2R,3S,4S)-2-{[4-(2,1,3-benzoxadiazol-5-yl)phenyl]methyl}-4-hydroxypyrrolidin-3-yl N-[(3-fluorophenyl)methyl]carbamate] | > 5.00 | > 5.00 | > 5.00 |
| O=C(NCc1cccc(F)c1)O[C@@H]1[C@@H](O)CN[C@@H]1Cc1ccc(Oc2cncs2)cc1 [V192395, (2R,3S,4S)-4-hydroxy-2-{[4-(1,3-thiazol-5-yloxy)phenyl]methyl}pyrrolidin-3-yl N-[(3-fluorophenyl)methyl]carbamate] | > 5.00 | > 5.00 | > 5.00 |
| O=C(NCc1cccc(F)c1)O[C@@H]1[C@@H](O)CN[C@@H]1Cc1ccc(-c2cnc(N3CC(F)(F)C3)s2)cc1 [V192410, (2R,3S,4S)-2-({4-[2-(3,3-difluoroazetidin-1-yl)-1,3-thiazol-5-yl]phenyl}methyl)-4-hydroxypyrrolidin-3-yl N-[(3-fluorophenyl)methyl]carbamate] | > 5.00 | > 5.00 | > 5.00 |
| O=C(NCCc1cc(F)c(O)c(F)c1)O[C@@H]1[C@@H](O)CN[C@@H]1Cc1ccc(-c2cnco2)cc1 [V192432, (2R,3S,4S)-4-hydroxy-2-{[4-(1,3-oxazol-5-yl)phenyl]methyl}pyrrolidin-3-yl N-[2-(3,5-difluoro-4-hydroxyphenyl)ethyl]carbamate] | > 5.00 | > 5.00 | > 5.00 |
| O=C(NCc1cc(F)c(O)c(F)c1)O[C@@H]1[C@@H](O)CN[C@@H]1Cc1ccc(-c2cnco2)cc1 [V192433, (2R,3S,4S)-4-hydroxy-2-{[4-(1,3-oxazol-5-yl)phenyl]methyl}pyrrolidin-3-yl N-[(3,5-difluoro-4-hydroxyphenyl)methyl]carbamate] | > 5.00 | > 5.00 | > 5.00 |
| O=C(NCCC12CNC(C1)C2)O[C@@H]1[C@@H](O)CN[C@@H]1Cc1ccc(-c2cnco2)cc1 [V192849, (2R,3S,4S)-4-hydroxy-2-{[4-(1,3-oxazol-5-yl)phenyl]methyl}pyrrolidin-3-yl N-(2-{2-azabicyclo[2.1.1]hexan-4-yl}ethyl)carbamate] | > 5.00 | > 5.00 | > 5.00 |
| O=C(NCc1cccc(F)c1)O[C@@H]1[C@@H](O)CN[C@@H]1Cc1ccc(-c2cnco2)nc1 [V192862, (2R,3S,4S)-4-hydroxy-2-{[6-(1,3-oxazol-5-yl)pyridin-3-yl]methyl}pyrrolidin-3-yl N-[(3-fluorophenyl)methyl]carbamate] | > 5.00 | > 5.00 | > 5.00 |
